We go through 41 molecules from patent US9133157B2, “HIV protease inhibitors” (Merck Canada Inc., priority 2011, dated 2015).

SMILES strings stand for the structures.

The experiment concerns the target WT HIV-1 protease (Human immunodeficiency virus type 1 group M subtype B (isolate HXB2) (HIV-1), UniProt P04585). Kind of experiment: Assay for inhibition of microbial expressed HIV protease (Procedure A, peptide substrate, HPLC fluorescence detection). Particulars: WT HIV-1 protease 10 pM, substrate 400 micromolar, pH 5.5, 30 min preincubation, 1 hour at 30° C.; read-out: Enzyme inhibition IC50. The format is biochemical. The protocol: The inhibition of WT HIV-1 protease was studied using the reaction of the protease (expressed in Eschericia coli) with a peptide substrate [Val-Ser-Gln-Asn-(betanaphthyl)Ala-Pro-Ile-Val (SEQ ID NO:1)]. Compounds were tested using Procedure A. In Procedure A, the test compound was first preincubated with the enzyme in assay buffer (50 mM sodium acetate, pH 5.5, 100 mM NaCl, and 0.1% BSA) for 30 minutes at room temperature. Substrate was then added to 400 micromolar in a total volume of 80 microliters containing 10 picomolar HIV-1 protease and the reaction was incubated for 1 hour at 30° C. The reaction was quenched with the addition of 120 microliters of 10% phosphoric acid. The product formation was determined after separation of product and substrate on a Zorbax Eclipse XDB-C18 column (Agilent Technologies, Santa Clara, Calif.) connected to an Agilent 1100 high performance liquid chromatography system with fluorescence detection (excitation 270 nanometer and emission 330 nanometer).
Usually IC50 stands for the midpoint of a concentration-inhibition curve. Turning to `COC(=O)N[C@H](C(=O)NCc1csc(C(CO)N(CCC(C)C)S(=O)(=O)c2ccccc2)c1)C(c1ccccc1)c1ccccc1` (stereo partly drawn) [Example 1, N-[(5-{2-hydroxy-1-[(3-methylbutyl)(phenylsulfonyl)amino]ethyl}thiophen-3-yl)methyl]-Nα-(methoxycarbonyl)-β-phenyl-L-phenylalaninamide], the IC50 stood at 72.8 nM.
In the case of `COC(=O)N[C@H](C(=O)NCc1cnc(C(CO)N(CCC(C)C)S(=O)(=O)c2ccccc2)s1)C(c1ccccc1)c1ccccc1` (stereo partly drawn) [Example 2, N-[(2-{2-hydroxy-1-[(3-methylbutyl)(phenylsulfonyl)amino]ethyl}-1,3-thiazol-5-yl)methyl]-Nα-(methoxycarbonyl)-β-phenyl-L-phenylalaninamide], the IC50 was 250 nM.
As for `COC(=O)N[C@H](C(=O)NCc1ncc(C(CO)N(CCC(C)C)S(=O)(=O)c2ccccc2)s1)C(c1ccccc1)c1ccccc1` (stereo partly drawn) [Example 3, N-[(5-{2-hydroxy-1-[(3-methylbutyl)(phenylsulfonyl)amino]ethyl}-1,3-thiazol-2-yl)methyl]-Nα-(methoxycarbonyl)-β-phenyl-L-phenylalaninamide], the IC50 worked out at 12.1 nM.
The value for `COC(=O)N[C@H](C(=O)NCc1ccc(C(CO)N(CCC(C)C)S(=O)(=O)c2ccccc2)s1)C(c1ccccc1)c1ccccc1` (some centres unmarked) [Example 4] was 8.81 nM; that for `COC(=O)N[C@H](C(=O)NCc1ccc(C(CO)N(CCC(C)C)S(=O)(=O)c2ccc(CO)cc2)s1)C(c1ccccc1)c1ccccc1` (some centres unmarked) [Example 5] was 0.54 nM; that for `COC(=O)N[C@H](C(=O)NCc1cc(C(CO)N(CCC(C)C)S(=O)(=O)c2ccccc2)cs1)C(c1ccccc1)c1ccccc1` (stereo partly drawn) [Example 6, N-[(4-{2-hydroxy-1-[(3-methylbutyl)(phenylsulfonyl)amino]ethyl}thiophen-2-yl)methyl]-Nα-(methoxycarbonyl)-β-phenyl-L-phenylalaninamide] was 42.7 nM.
For `COC(=O)N[C@H](C(=O)NC(C)c1ccc(C(CO)N(CCC(C)C)S(=O)(=O)c2ccccc2)s1)C(c1ccccc1)c1ccccc1` (stereo partly drawn) [Example 7, N-[1-(5-{2-hydroxy-1-[(3-methylbutyl)(phenylsulfonyl)amino]ethyl}thiophen-2-yl)ethyl]-Nα-(methoxycarbonyl)-β-phenyl-L-phenylalaninamide], the IC50 was 3.5 nM.
Turning to `COC(=O)N[C@H](C(=O)NC(C)c1ccc(C(CO)N(CCC(C)C)S(=O)(=O)c2ccc(CO)cc2)s1)C(c1ccccc1)c1ccccc1` (some centres unmarked) [Example 8], the IC50 was 0.31 nM.
For the molecule `CCC(NC(=O)[C@@H](NC(=O)OC)C(c1ccccc1)c1ccccc1)c1ccc(C(CO)N(CCC(C)C)S(=O)(=O)c2ccc(CO)cc2)s1` (some centres unmarked) [Example 9], the IC50 was found to be 0.63 nM.
Turning to `COC(=O)N[C@H](C(=O)NCc1ccc([C@@H](CO)N(CC(C)C)S(=O)(=O)c2ccc(N)cc2)s1)C(c1ccccc1)c1ccccc1` [Example 10, N-({5-[(1R)-1-{[(4-aminophenyl)sulfonyl](2-methylpropyl)amino}-2-hydroxyethyl]thiophen-2-yl}methyl)-Nα-(methoxycarbonyl)-β-phenyl-L-phenylalaninamide], the IC50 was 2.6 nM.
The value for `COC(=O)N[C@H](C(=O)NCc1ccc([C@@H](CO)N(CC2CC(F)(F)C2)S(=O)(=O)c2ccc(N)cc2)s1)C(c1ccccc1)c1ccccc1` [Example 11] was 1.61 nM.
For `COC(=O)N[C@H](C(=O)NCc1ccc([C@@H](CO)N(C(C)C)S(=O)(=O)c2ccc(N)cc2)s1)C(c1ccccc1)c1ccccc1` [Example 12], the IC50 was determined as 18.8 nM.
The value for `COC(=O)N[C@H](C(=O)NCc1ccc([C@@H](CO)N(Cc2cc3cccnc3[nH]2)S(=O)(=O)c2ccc(N)cc2)s1)C(c1ccccc1)c1ccccc1` [Example 13] was 3.9 nM.
Turning to `COC(=O)N[C@H](C(=O)NCc1ccc([C@@H](CO)N(CC(C)C)S(=O)(=O)c2cccc(CC(C)(C)O)c2)s1)C(c1ccccc1)c1ccccc1` [Example 14], the IC50 was 4.1 nM.
Turning to `COC(=O)N[C@H](C(=O)NCc1ccc([C@@H](CO)N(CC2CC(F)(F)C2)S(=O)(=O)c2cccc(CC(C)(C)O)c2)s1)C(c1ccccc1)c1ccccc1` [Example 15], the IC50 was 6.6 nM.
The value for `COC(=O)N[C@H](C(=O)NCc1ccc([C@@H](CO)N(CC2CC(F)(F)C2)S(=O)(=O)c2ccc3cc[nH]c(=O)c3c2)s1)C(c1ccccc1)c1ccccc1` [Example 16] was 0.44 nM; that for `COC(=O)N[C@H](C(=O)NCc1ccc([C@@H](CO)N(CC2CC(F)(F)C2)S(=O)(=O)c2ccc3c(c2)COCC3)s1)C(c1ccccc1)c1ccccc1` [Example 17] was 2.4 nM.
The value for `COC(=O)N[C@H](C(=O)NCc1ccc([C@@H](CO)N(Cc2nonc2C)S(=O)(=O)c2ccc(N)cc2)s1)C(c1ccccc1)c1ccccc1` [Example 18] was 6.95 nM; that for `COC(=O)N[C@H](C(=O)NCc1ccc([C@@H](CO)N(Cc2cnon2)S(=O)(=O)c2ccc(N)cc2)s1)C(c1ccccc1)c1ccccc1` [Example 19] was 33.8 nM.
As for `COC(=O)N[C@H](C(=O)NCc1ccc(C(CO)N(Cc2cnon2)S(=O)(=O)c2ccc(N)cc2)s1)C(c1ccccc1)c1ccccc1` (some centres unmarked) [Example 20], the IC50 amounted to 6.97 nM.
Then `COC(=O)N[C@H](C(=O)NCc1ccc(C(CO)N(C(C)C)S(=O)(=O)c2ccc3scnc3c2)s1)C(c1ccccc1)c1ccccc1` (some centres unmarked) [Example 21], with 62.4 nM; and `COC(=O)N[C@H](C(=O)NCc1ccc([C@@H](CO)N(CC(C)C)S(=O)(=O)c2ccc3scnc3c2)s1)C(c1ccccc1)c1ccccc1` [Example 22], with 6.1 nM.
The value for `COC(=O)N[C@H](C(=O)NCc1ccc([C@H](CO)N(CC(C)C)S(=O)(=O)c2ccc3scnc3c2)s1)C(c1ccccc1)c1ccccc1` [Example 23] was 60.9 nM; that for `COC(=O)N[C@H](C(=O)NCc1ccc(C(CO)N(Cc2cc3ccccc3[nH]2)S(=O)(=O)c2ccc3scnc3c2)s1)C(c1ccccc1)c1ccccc1` (some centres unmarked) [Example 24] was 13.6 nM; that for `COC(=O)N[C@H](C(=O)NCc1ccc([C@@H](CO)N(Cc2cc3ccccc3[nH]2)S(=O)(=O)c2ccc3scnc3c2)s1)C(c1ccccc1)c1ccccc1` [Example 25] was 7.99 nM.
In the case of `COC(=O)N[C@H](C(=O)NCc1ccc(C(CO)N(Cc2cccnc2OC)S(=O)(=O)c2ccc3scnc3c2)s1)C(c1ccccc1)c1ccccc1` (some centres unmarked) [Example 26], the IC50 was 31 nM.
For the molecule `COC(=O)N[C@H](C(=O)NCc1ccc(C(CO)N(Cc2ccnc(OC)c2)S(=O)(=O)c2ccc3scnc3c2)s1)C(c1ccccc1)c1ccccc1` (some centres unmarked) [Example 27], the IC50 came to 15.5 nM.
The value for `COC(=O)N[C@H](C(=O)NCc1ccc([C@@H](CO)N(Cc2ccnc(OC)c2)S(=O)(=O)c2ccc3scnc3c2)s1)C(c1ccccc1)c1ccccc1` [Example 28] was 1.45 nM; that for `COC(=O)N[C@H](C(=O)NCc1ccc([C@H](CO)N(Cc2ccnc(OC)c2)S(=O)(=O)c2ccc3scnc3c2)s1)C(c1ccccc1)c1ccccc1` [Example 29] was 106 nM; that for `COC(=O)N[C@H](C(=O)NCc1ccc(C(CO)N(Cc2cnn(S(=O)(=O)N(C)C)c2)S(=O)(=O)c2ccc3scnc3c2)s1)C(c1ccccc1)c1ccccc1` (some centres unmarked) [Example 30] was 5.13 nM.
For the molecule `COC(=O)N[C@H](C(=O)NCc1ccc(C(CO)N(Cc2cn[nH]c2)S(=O)(=O)c2ccc3scnc3c2)s1)C(c1ccccc1)c1ccccc1` (some centres unmarked) [Example 31], the IC50 is 3.62 nM.
The value for `COC(=O)N[C@H](C(=O)NCc1ccc([C@@H](CO)N(Cc2cn[nH]c2)S(=O)(=O)c2ccc3scnc3c2)s1)C(c1ccccc1)c1ccccc1` [Example 32] was 2.27 nM; that for `COC(=O)N[C@H](C(=O)NCc1ccc([C@H](CO)N(Cc2cn[nH]c2)S(=O)(=O)c2ccc3scnc3c2)s1)C(c1ccccc1)c1ccccc1` [Example 33] was 96.6 nM.
The value for `COC(=O)N[C@H](C(=O)NCc1ccc(C(CO)N(Cc2cc3cccnc3[nH]2)S(=O)(=O)c2ccc3scnc3c2)s1)C(c1ccccc1)c1ccccc1` (some centres unmarked) [Example 34] was 35 nM; that for `COC(=O)N[C@H](C(=O)NCc1ccc([C@@H](CO)N(Cc2cc3cccnc3[nH]2)S(=O)(=O)c2ccc3scnc3c2)s1)C(c1ccccc1)c1ccccc1` [Example 35] was 11.9 nM; that for `COC(=O)N[C@H](C(=O)NCc1ccc(C(CO)N(CC2CC(F)(F)C2)S(=O)(=O)c2ccc3c(c2)CCC3O)s1)C(c1ccccc1)c1ccccc1` (some centres unmarked) [Example 36] was 3.65 nM.
Then `COC(=O)N[C@H](C(=O)NCc1ccc([C@@H](CO)N(CC2CC(F)(F)C2)S(=O)(=O)c2ccc3c(c2)CCC3O)s1)C(c1ccccc1)c1ccccc1` (some centres unmarked) [Example 37], with 5.65 nM.
As to `COC(=O)N[C@H](C(=O)NCc1ccc([C@@H](CO)N(CC2CC(F)(F)C2)S(=O)(=O)c2ccc3c(c2)C(O)CC3)s1)C(c1ccccc1)c1ccccc1` (some centres unmarked) [Example 38], the half-inhibitory concentration (IC50) turned out to be 13.6 nM.
Then `COC(=O)N[C@H](C(=O)NCc1ccc([C@@H](CO)N(CC2CC(F)(F)C2)S(=O)(=O)c2cccc(C(=O)c3ccccn3)c2)s1)C(c1ccccc1)c1ccccc1` [Example 40], with 175 nM; and `COC(=O)N[C@H](C(=O)NCc1ccc([C@@H](CO)N(CC2CC(F)(F)C2)S(=O)(=O)c2ccc3cc[nH]c3c2)s1)C(c1ccccc1)c1ccccc1` [Example 41], with 8.83 nM.
The value for `COC(=O)N[C@H](C(=O)NCc1ccc([C@@H](CO)N(CC2CC(F)(F)C2)S(=O)(=O)c2cccc(Cc3ccccn3)c2)s1)C(c1ccccc1)c1ccccc1` [Example 42] was 110 nM.
